Test system: bees
Experiment: Beekeeper field trial: winter survival of bee hives after feeding
Format: in vivo
Conditions: populations given only iron(II) fumarate
Description: In a trial, a number or beekeepers (16) used a solution of vinasse containing dissolved iron(II) fumarate with the goal of reducing instances of winter mortality and CCD. This solution was mixed with 100-200 ml of sugar syrup. The solution thus obtained was administered to bees with their feed. The quantities and results were as follows: A total of approximately 1,000 mg of iron(II) fumarate, or 333 mg Fe (i.e. 5.8 millimoles iron(II)) was administered per 5 kg of bees. This quantity was administered in small portions. The initial moments of the series administrations ranged from 5 August 2011 to 15 September 2011. The administration frequencies ranged from one time per week to one time per 3 days. If administration was started late in the season, administration was one time per 3 days to ensure that a consistent total amount of iron(II) fumarate was administered across the test populations. […] In a control populations given only pure vinasse the queens were dead within 14 days; these populations were then not viable and after the death of the queen, remaining bees in the population were merged with another population. In one case, the total amount of iron(II) fumarate and vinasse was added to 15 kg of sugar syrup. This emulsion was administered as a winter sugar, until the mixture was consumed. […]

## O=C([O-])/C=C/C(=O)[O-].[Fe+2] [iron(II) fumarate]
  winter survival of control populations: survived the winter, but in a very weak state

Source: patent US9333188B2, “Composition and method for improving survival of bee colonies” (Science in Water B.V., priority 2012, dated 2016)
